Laboratory results from patent publication US20090155376A1, “PROTEIN HYDROLYSATE WITH ANTIDIABETIC EFFECT” (MG PHARMA INC., priority 2004, published 2009).
Where a SMILES comes first, the peptide text is derived from it.

Tested on: male and female ICR mice
Assay: Safety test, oral administration to mice
Type: in vivo
Conditions: 10 g/kg (maximum allowable dose) or greater
Excerpt: The peptide having the amino acid sequence Val-Val-Tyr-Pro (SEQ. ID. No. 1) prepared in Example 2 was orally administered to male and female ICR mice in an amount of 10 g/kg (maximum allowable dose) or greater, and there were no fatalities, thereby establishing the safety of the peptide.

CC(C)[C@H](N)C(=O)N[C@H](C(=O)N[C@@H](Cc1ccc(O)cc1)C(=O)N1CCC[C@H]1C(=O)O)C(C)C [Peptide (VVYP), Val-Val-Tyr-Pro] (H-VVYP-OH)
Fatalities: no fatalities
